Values of other authors in patent publication US6472222B2, “Method of estimating rate of nicotine metabolism in individuals” (Via Christi Research, Inc., priority 1999, dated 2002).

## CN1C(=O)CC[C@H]1c1cccnc1 [cotinine]
plasma
  half-life: approximately 19 hours

## CN1CCCC1c1cccnc1 (stereo not drawn) [nicotine]
Biphasic elimination, longer of two half-lives
  half-life (biphasic elimination, second phase): ~2 h
Biphasic elimination, shorter of two half-lives
  half-life (biphasic elimination, first, short phase): approximately 10 minutes
